Data published in the NIST ThermoML archive (doi:10.1021/je0504109).
Numbers after ± are expanded uncertainties. One block for each molecule: values may come before it.

How the values were obtained:
[1] = 298.15 K; 101 kPa; Liquid
[2] = xn = mol fraction of the nth substance listed; conditions: 298.15 K, 101 kPa, Liquid

SMILES: C1COCO1 [1,3-dioxolane]
mass density [1]: 1057.1 ± 0.9 kg/m3
viscosity [1]: 0.531 ± 0.01 mPa·s

mass density [1]: 952.8 ± 0.8 kg/m3
viscosity [1]: 1.396 ± 0.023 mPa·s
SMILES: CCCC(=O)O [butanoic acid]

SMILES: C1COCCO1 [1,4-dioxane]
mass density [1]: 1026.5 ± 0.8 kg/m3
viscosity [1]: 1.196 ± 0.02 mPa·s

mass density ([2]; x2 = 0): 731.9 ± 0.6 kg/m3
viscosity ([2]; x2 = 0): 0.493 ± 0.009 mPa·s
mass density ([2]; x2 = 0.1001): 755.1 ± 0.6 kg/m3
viscosity ([2]; x2 = 0.1001): 0.477 ± 0.009 mPa·s
mass density ([2]; x2 = 0.2001): 779.6 ± 0.6 kg/m3
viscosity ([2]; x2 = 0.2001): 0.463 ± 0.009 mPa·s
mass density ([2]; x2 = 0.3002): 805.8 ± 0.6 kg/m3
viscosity ([2]; x2 = 0.3002): 0.458 ± 0.009 mPa·s
mass density ([2]; x2 = 0.4002): 833.8 ± 0.7 kg/m3
viscosity ([2]; x2 = 0.4002): 0.455 ± 0.009 mPa·s
mass density ([2]; x2 = 0.5002): 864.1 ± 0.7 kg/m3
viscosity ([2]; x2 = 0.5002): 0.456 ± 0.009 mPa·s
mass density ([2]; x2 = 0.6002): 896.8 ± 0.7 kg/m3
viscosity ([2]; x2 = 0.6002): 0.464 ± 0.009 mPa·s
mass density ([2]; x2 = 0.7002): 932.1 ± 0.8 kg/m3
viscosity ([2]; x2 = 0.7002): 0.478 ± 0.009 mPa·s
mass density ([2]; x2 = 0.8001): 970.3 ± 0.8 kg/m3
viscosity ([2]; x2 = 0.8001): 0.496 ± 0.009 mPa·s
mass density ([2]; x2 = 0.9001): 1011.8 ± 0.8 kg/m3
viscosity ([2]; x2 = 0.9001): 0.513 ± 0.01 mPa·s
SMILES: CCCCN [1-butanamine] + C1COCO1

SMILES: CCCCOC(C)=O [butyl ethanoate] + C1COCO1
mass density ([2]; x2 = 0): 874.4 ± 0.7 kg/m3
viscosity ([2]; x2 = 0): 0.668 ± 0.012 mPa·s

SMILES: C1COCO1 [1,3-dioxolane] + CCCCN
mass density ([2]; x1 = 1): 1057.1 ± 0.9 kg/m3
viscosity ([2]; x1 = 1): 0.531 ± 0.01 mPa·s

SMILES: CCCCOC(C)=O [butyl ethanoate]
mass density [1]: 874.4 ± 0.7 kg/m3
viscosity [1]: 0.668 ± 0.012 mPa·s

SMILES: CCC(C)=O [butanone]
mass density [1]: 798.1 ± 0.6 kg/m3
viscosity [1]: 0.373 ± 0.007 mPa·s

SMILES: C1COCCO1 [1,4-dioxane] + CCCC(=O)O
mass density ([2]; x1 = 1): 1026.5 ± 0.8 kg/m3
viscosity ([2]; x1 = 1): 1.196 ± 0.02 mPa·s

mass density [1]: 731.9 ± 0.6 kg/m3
viscosity [1]: 0.493 ± 0.009 mPa·s
SMILES: CCCCN [1-butanamine]
